Patent publication EP0562731A1, “Substituted pyridinesulfonamide compounds or their salts, process for preparing the same, and herbicides containing the same” (ISHIHARA SANGYO KAISHA, Ltd., priority 1992, dated 1993)

Tests used:
Type in all cases: in vivo
[1] = system: barnyard grass (Echinochloa crus-galli); assay: Test Example 1: foliar application pot test, visual growth control rating; set-up: key: 1: the same as in an untreated plot; 10: perfect growth control; conditions: wettable powder, observed 20 to 31 days after application
Procedure, shortened: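 Barnyard grass was grown in upland farming soil in 1/1,500 are pots. Plants at the 1.5- to 3.2-leaf stage received a foliar spray of the wettable powder formulation, diluted with 5 ℓ/a water containing 0.2 or 0.1 vol% spreader. After 20 to 31 days, plants were compared visually with untreated ones and rated from 1 (no effect) to 10 (complete control).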

corn (Zea mays) = assay: as above; set-up: key: 1: the same as in an untreated plot; 10: perfect growth control; conditions: wettable powder, observed 20 to 31 days after application
[2] = system: large crabgrass (Digitaria adscendens); assay: as above; set-up: key: 1: the same as in an untreated plot; 10: perfect growth control; conditions: wettable powder, observed 20 to 31 days after application
Procedure, shortened: (§1)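 Foliar spray, small spray gun; WP in water at 5 ℓ/a + spreader 0.2 or 0.1 vol%. Stages: morning glory 0.3–1.6 leaf, large crabgrass 1.2–3.0, cotton cotyledon–0.7, cocklebur 0.3–3.4. Visual rating d20–31, 1 (as untreated) to 10 (complete).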

[3] = system: morning glory (Ipomoea purpurea); assay: as above; set-up: key: 1: the same as in an untreated plot; 10: perfect growth control; conditions: wettable powder, observed 20 to 31 days after application
Procedure, shortened: as §1

rice (Oryza sativa) = assay: as above; set-up: key: 1: the same as in an untreated plot; 10: perfect growth control; conditions: wettable powder, observed 20 to 31 days after application
[4] = system: slender amaranth (Amaranthus viridis); assay: as above; set-up: key: 1: the same as in an untreated plot; 10: perfect growth control; conditions: wettable powder, observed 20 to 31 days after application
[5] = system: velvet leaf (Abutilon theophrasti); assay: Test Example 2: foliar application pot test, visual herbicidal effect rating, single and combined herbicides; conditions: velvet leaf 1.2-leaf stage, 25 days after foliar application; also: ranges in brackets are in %
From the text: 1/10000-are pot was filled with upland farming soil and sown with velvet leaf (Abutilon theophrasti). When the plant reached the 1.2-leaf stage, a predetermined amount of the herbicide of the present invention diluted with 5 ℓ of water per are and admixed with 0.1 vol%, based on the aqueous solution, of an agricultural spreader ("Kusa Rino", produced by Nihon Nohyaku Co., Ltd.) was foliarly applied to the plant with a small spray gun. The herbicidal effect was visually observed 25 days after the foliar application and evaluated according to the rating system shown below.

velvet leaf [6] = assay: Test Example 3: foliar application pot test, percent growth inhibition by fresh weight of aerial part and Colby's value; conditions: Abutilon theophrasti, velvet leaf 1-leaf stage, 20th day from foliar application, fresh weight of aerial part, read-out: Percent Growth Inhibition (%) Found; for inhibition at 16 g/ha: 0.16 g/a; for inhibition at 63 g/ha: 0.63 g/a
From the text: (§2) 1/10000-are pot was filled with upland farming soil and sown with velvet leaf. When the plant reached the 1-leaf stage, a predetermined amount of the herbicide of the present invention diluted with 5 ℓ of water per are and admixed with 0.1 vol%, based on the aqueous solution, of an agricultural spreader ("Kusa Rino") was foliarly applied to the plant with a small spray gun. On the 20th day from the application, the aerial part of the plant was weighed to obtain a percent growth inhibition according to Equation (1) (found value) and a Colby's value (calculated value) according to Equation (2) (see Weed, Vol. 15, pp. 20-22 (1967)). Percent Growth Inhibition (%) = (1 -(Fresh Weight of Aerial Part of Plant in Treated Plot)/(Fresh Weight of Aerial Part of Plant in Untreated Plot)) x 100 [formula] Colby's Value (E) = α + β -(α x β)/(100) [formula]
(§3) Wherein α represents a percent growth inhibition when treated with an amount a (g/a) of herbicide A; β represents a percent growth inhibition when treated with amount b (g/a) of herbicide B; and E represents an expected percent growth inhibition when treated with a of herbicide A and b of herbicide B.

velvet leaf [7] = assay: Test Example 4: foliar application pot test, percent growth inhibition by fresh weight of aerial part and Colby's value; conditions: Abutilon theophrasti, read-out: Percent Growth Inhibition (%) Found
From the text: as §2, §3
(§4) 1/10000-are pot was filled with upland farming soil and sown with velvet leaf. When the plant reached the 1-leaf stage, a predetermined amount of the herbicide of the present invention diluted with 5 ℓ of water per are and admixed with 0.1 vol%, based on the aqueous solution, of an agricultural spreader ("Kusa Rino") was foliarly applied to the plant with a small spray gun. On the 20th day from the application, the aerial part of the plant was weighed to obtain a percent growth inhibition and a Colby's value in the same manner as in Test Example 3.

[8] = system: large crabgrass (Digitaria adscendens); assay: Test Example 5: foliar application pot test, percent growth inhibition by fresh weight of aerial part and Colby's value; conditions: read-out: Percent Growth Inhibition (%) Found
From the text: as §2, §3
as §4, with “large crabgrass (Digitaria adscendens).” for “velvet leaf.”, “2-leaf” for “1-leaf”

cotton (Gossypium) = assay: Test Example 1: foliar application pot test, visual growth control rating; conditions: wettable powder, observed 20 to 31 days after application
From the text: 1/1,500 are [are (a) = 100 m²] pots were filled with upland farming soil, which in the pots was then sown with a variety of plants. The plants grown will be enumerated below.
When each plant reached a given growth stage (a 1.2- to 3.0-leaf stage for rice, primary leaf to a 0.7-leaf stage for soybean, 2.1- to 3.6-leaf stage for corn, cotyledon to 0.7-leaf stage for cotton, 2.0- to 3.0-leaf stage for wheat, 0.3- to 3.4-leaf stage for cocklebur, 0.3- to 1.6-leaf stage for morning glory, 0.1- to 1.3-leaf stage for prickly sida, 0.1- to 1.3-leaf stage for slender amaranth, 1.5- to 3.2-leaf stage for barnyard glass, and 1.2- to 3.0-leaf stage for large crabgrass), a predetermined amount of the herbicide of the present invention in the form of a wettable powder, weighed out, diluted with 5 ℓ/a of water and admixed with 0.2 or 0.1 vol%, based on the resulting composition, of an agricultural spreader, was foliarly applied to the plant with a small spray gun. The progress of growth of the plant was visually observed 20 to 31 days after the foliar application to evaluate the degree of growth control according to 10 ratings (1: the same as in an untreated plot - 10: perfect growth control).

[9] = system: cocklebur (Xanthium strumarium); assay: as above; set-up: key: 1: the same as in an untreated plot; 10: perfect growth control; conditions: wettable powder, observed 20 to 31 days after application
Procedure, shortened: as §1

[10] = system: prickly sida (Sida spinosa); assay: as above; set-up: key: 1: the same as in an untreated plot; 10: perfect growth control; conditions: 1.25 g/a active ingredient, wettable powder, observed 20 to 31 days after application
soybean (Glycine max) = assay: as above; set-up: key: 1: the same as in an untreated plot; 10: perfect growth control; conditions: 1.25 g/a active ingredient, wettable powder, observed 20 to 31 days after application

Structure (SMILES): CCN(c1cccc(S(=O)(=O)NC(=O)Nc2nc(C)nc(OC)n2)n1)S(=O)(=O)C(C)Cl (racemic) [Compound No. 54, 6-[[N-(1-chloroethylsulfonyl)-N-ethyl]amino]-N-[[(4-methoxy-6-methyltriazin-2-yl)amino]carbonyl]-2-pyridinesulfonamide]
- degree of growth control, EC ([1]; 0.31 g/a active ingredient): 10
- degree of growth control, EC ([1]; 1.25 g/a active ingredient): 10
- degree of growth control, ZE (corn (Zea mays); 0.31 g/a active ingredient): 10
- degree of growth control, ZE (corn (Zea mays); 1.25 g/a active ingredient): 10
- degree of growth control, DI ([2]; 0.31 g/a active ingredient): 3
- degree of growth control, DI ([2]; 1.25 g/a active ingredient): 3
- degree of growth control, IP ([3]; 0.31 g/a active ingredient): 9
- degree of growth control, IP ([3]; 1.25 g/a active ingredient): 9
- degree of growth control, OR (rice (Oryza sativa); 0.31 g/a active ingredient): 9
- degree of growth control, OR (rice (Oryza sativa); 1.25 g/a active ingredient): 9
- degree of growth control, AM ([4]; 0.31 g/a active ingredient): 9
- degree of growth control, AM ([4]; 1.25 g/a active ingredient): 9
- Rating ([5]; 0.16 g/a): 3 (30-39)
- Rating ([5]; 0.31 g/a): 5 (50-59)
- Rating ([5]; 0.63 g/a): 6 (60-69)
- Rating ([5]; 1.25 g/a): 8 (80-89)
- inhibition at 16 g/ha (velvet leaf [6]): 19%
- inhibition at 31 g/ha (velvet leaf [6]; 0.31 g/a): 52%
- inhibition at 63 g/ha (velvet leaf [6]): 86%
- inhibition at 16 g/ha (velvet leaf [7]; 0.16 g/a, velvet leaf 1-leaf stage, 20th day from foliar application, fresh weight of aerial part): 12%
- inhibition at 31 g/ha (velvet leaf [7]; 0.31 g/a, velvet leaf 1-leaf stage, 20th day from foliar application, fresh weight of aerial part): 32%
- inhibition at 63 g/ha (velvet leaf [7]; 0.63 g/a, velvet leaf 1-leaf stage, 20th day from foliar application, fresh weight of aerial part): 66%
- inhibition at 16 g/ha ([8]; 0.16 g/a, foliar application, 20th day, large crabgrass): 19%
- inhibition at 31 g/ha ([8]; 0.31 g/a, foliar application, 20th day, large crabgrass): 24%
- inhibition at 63 g/ha ([8]; 0.63 g/a, foliar application, 20th day, large crabgrass): 77%

Structure (SMILES): CCC(Cl)S(=O)(=O)N(CC)c1cccc(S(=O)(=O)NC(=O)Nc2nc(C)nc(OC)n2)n1 (racemic) [compound 88]
- degree of growth control, GO (cotton (Gossypium); 0.31 g/a active ingredient): 6
- degree of growth control, GO (cotton (Gossypium); 1.25 g/a active ingredient): 6
- degree of growth control, EC ([1]; 0.31 g/a active ingredient): 10
- degree of growth control, EC ([1]; 1.25 g/a active ingredient): 10
- degree of growth control, XA ([9]; 0.31 g/a active ingredient): 10
- degree of growth control, XA ([9]; 1.25 g/a active ingredient): 10
- degree of growth control, ZE (corn (Zea mays); 0.31 g/a active ingredient): 10
- degree of growth control, ZE (corn (Zea mays); 1.25 g/a active ingredient): 10
- degree of growth control, IP ([3]; 0.31 g/a active ingredient): 10
- degree of growth control, IP ([3]; 1.25 g/a active ingredient): 10

Structure (SMILES): CC(C)N1C(=O)c2ccccc2NS1(=O)=O [Bentazon, 3-(1-methylethyl)-(1H)-2,1,3-benzothiadiazin-4(3H)-one-2,2-dioxide, reference compound]
- inhibition at 63 g/ha (velvet leaf [6]): 17%
- inhibition at 125 g/ha (velvet leaf [6]; 1.25 g/a): 69%

Structure (SMILES): CON(C)C(=O)Nc1ccc(Cl)c(Cl)c1 [Linuron, 3-(3,4-dichlorophenyl)-1-methoxy-1-methylurea, reference compound]
- inhibition at 12.5 g/ha (velvet leaf [7]; foliar): 35%
- inhibition at 25 g/ha (velvet leaf [7]; foliar): 61%
- inhibition at 12.5 g/ha ([8]; foliar): 23%
- inhibition at 25 g/ha ([8]; foliar): 68%
- inhibition at 50 g/ha ([8]; foliar): 79%

Structure (SMILES): CSc1nnc(C(C)(C)C)c(=O)n1N [Metribuzin, 4-amino-6-(1,1-dimethylethyl)-3-(methylthio)-1,2,4-triazin-5(4H)-one, reference compound]
- inhibition at 16 g/ha (velvet leaf [6]): 89%

Structure (SMILES): CCN(c1cccc(S(=O)(=O)NC(=O)Nc2nc(C)nc(OC)n2)n1)S(=O)(=O)CC(F)(F)F [compound 79]
- degree of growth control, GO (cotton (Gossypium); 1.25 g/a active ingredient): 6
- degree of growth control, EC ([1]; 1.25 g/a active ingredient): 1
- degree of growth control, XA ([9]; 1.25 g/a active ingredient): 6
- degree of growth control, ZE (corn (Zea mays); 1.25 g/a active ingredient): 1
- degree of growth control, DI ([2]; 1.25 g/a active ingredient): 3
- degree of growth control, IP ([3]; 1.25 g/a active ingredient): 7
- degree of growth control, SI [10]: 3
- degree of growth control, OR (rice (Oryza sativa); 1.25 g/a active ingredient): 1
- degree of growth control, AM ([4]; 1.25 g/a active ingredient): 6
- degree of growth control, GL (soybean (Glycine max)): 6
